Test results from patent US10259808B2 (Genentech, Inc., priority 2015, dated 2019).

molecular target: T1, RORc ligand binding domain (Homo sapiens, UniProt P51449); assay: In vitro RORc ligand binding assay (25-[3H]hydroxycholesterol displacement)
T1 sequence (P51449 269-508 limits assumed): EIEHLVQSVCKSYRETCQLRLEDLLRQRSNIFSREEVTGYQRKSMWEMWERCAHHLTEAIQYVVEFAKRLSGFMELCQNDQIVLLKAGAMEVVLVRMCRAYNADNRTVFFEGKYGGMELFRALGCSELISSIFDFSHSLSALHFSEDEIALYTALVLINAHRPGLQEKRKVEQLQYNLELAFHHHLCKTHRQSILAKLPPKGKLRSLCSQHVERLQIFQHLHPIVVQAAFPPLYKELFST

SMILES	IC50
C[C@H]1CC[C@H](c2ccccc2)S(=O)(=O)N1Cc1cc(F)c(C2(N(C)Cc3cocn3)CCOCC2)cc1F [Example 81, 4-[2,5-difluoro-4-[[(3S,6R)-3-methyl-1,1-dioxo-6-phenyl-thiazinan-2-yl]methyl]phenyl]-N-methyl-N-(oxazol-4-ylmethyl)tetrahydropyran-4-amine]	8.8 nM
C[C@H]1CC[C@H](c2ccccc2)S(=O)(=O)N1Cc1cc(F)c(C2(NCc3cc(=O)[nH]o3)CCOCC2)cc1F [Example 82, 5-[[[4-[2,5-difluoro-4-[[(3S,6R)-3-methyl-1,1-dioxo-6-phenyl-thiazinan-2-yl]methyl]phenyl]tetrahydropyran-4-yl]amino]methyl]isoxazol-3-one]	5.7 nM
C[C@H]1CC[C@H](c2ccccc2)S(=O)(=O)N1Cc1cc(F)c(C2(NCc3ncco3)CCOCC2)cc1F [Example 83, 4-[2,5-difluoro-4-[[(3S,6R)-3-methyl-1,1-dioxo-6-phenyl-thiazinan-2-yl]methyl]phenyl]-N-(oxazol-2-ylmethyl)tetrahydropyran-4-amine]	3.7 nM
C[C@H]1CC[C@H](c2ccccc2)S(=O)(=O)N1Cc1cc(F)c(C2(NCc3cc[nH]n3)COC2)cc1F [Example 84, 3-[2,5-difluoro-4-[[(3S,6R)-3-methyl-1,1-dioxo-6-phenyl-thiazinan-2-yl]methyl]phenyl]-N-(1H-pyrazol-3-ylmethyl)oxetan-3-amine]	5.7 nM
Cc1cc(CNC2(c3cc(F)c(CN4[C@@H](C)CC[C@H](c5ccccc5)S4(=O)=O)cc3F)CCOCC2)no1 [Example 86, 4-[2,5-difluoro-4-[[(3S,6R)-3-methyl-1,1-dioxo-6-phenyl-thiazinan-2-yl]methyl]phenyl]-N-[(5-methylisoxazol-3-yl)methyl]tetrahydropyran-4-amine]	5 nM
C[C@H]1CC[C@H](c2ccccc2)S(=O)(=O)N1Cc1cc(F)c(C2(NCc3ncco3)COC2)cc1F [Example 88, 3-[2,5-difluoro-4-[[(3S,6R)-3-methyl-1,1-dioxo-6-phenyl-thiazinan-2-yl]methyl]phenyl]-N-(oxazol-2-ylmethyl)oxetan-3-amine]	8.2 nM
C[C@H]1CC[C@H](c2ccccc2)S(=O)(=O)N1Cc1cc(F)c(C2(NCc3cnccn3)COC2)cc1F [Example 89, 3-[2,5-difluoro-4-[[(3S,6R)-3-methyl-1,1-dioxo-6-phenyl-thiazinan-2-yl]methyl]phenyl]-N-(pyrazin-2-ylmethyl)oxetan-3-amine]	7.1 nM
C[C@H]1CC[C@H](c2ccccc2)S(=O)(=O)N1Cc1cc(F)c(C2(NCc3ccn(C)n3)CCOCC2)cc1F [Example 91, 4-[2,5-difluoro-4-[[(3S,6R)-3-methyl-1,1-dioxo-6-phenyl-thiazinan-2-yl]methyl]phenyl]-N-[(1-methylpyrazol-3-yl)methyl]tetrahydropyran-4-amine]	82.6 nM
C[C@H]1CC[C@H](c2ccccc2)S(=O)(=O)N1Cc1cc(F)c(C2(NCc3nnc[nH]3)CCOCC2)cc1F [Example 92, 4-[2,5-difluoro-4-[[(3S,6R)-3-methyl-1,1-dioxo-6-phenyl-thiazinan-2-yl]methyl]phenyl]-N-(4H-1,2,4-triazol-3-ylmethyl)tetrahydropyran-4-amine]	23.6 nM
Cc1cc(C(=O)NC2(c3cc(F)c(CN4[C@@H](C)CC[C@H](c5ccccc5)S4(=O)=O)cc3F)CCOCC2)no1 [Example 93, N-[4-[2,5-difluoro-4-[[(3,6R)-3-methyl-1,1-dioxo-6-phenyl-thiazinan-2-yl]methyl]phenyl]tetrahydropyran-4-yl]-5-methyl-isoxazole-3-carboxamide]	44 nM
C[C@H]1CC[C@H](c2ccccc2)S(=O)(=O)N1Cc1cc(F)c(C2(NC(=O)Cc3ccon3)COC2)cc1F [Example 94, N-[3-[2,5-difluoro-4-[[(3S,6R)-3-methyl-1,1-dioxo-6-phenyl-thiazinan-2-yl]methyl]phenyl]oxetan-3-yl]-2-isoxazol-3-yl-acetamide]	17.9 nM
C[C@H]1CC[C@H](c2ccccc2)S(=O)(=O)N1Cc1cc(F)c(C2(NC(=O)c3ccon3)COC2)cc1F [Example 97, N-[3-[2,5-difluoro-4-[[(3S,6R)-3-methyl-1,1-dioxo-6-phenyl-thiazinan-2-yl]methyl]phenyl]oxetan-3-yl]isoxazole-3-carboxamide]	22.4 nM
C[C@H]1CC[C@H](c2ccccc2)S(=O)(=O)N1Cc1cc(F)c(C2(NCc3cnco3)COC2)cc1F [Example 100, 3-[2,5-difluoro-4-[[(3S,6R)-3-methyl-1,1-dioxo-6-phenyl-thiazinan-2-yl]methyl]phenyl]-N-(oxazol-5-ylmethyl)oxetan-3-amine]	34.1 nM
C[C@H]1CC[C@H](c2ccccc2)S(=O)(=O)N1Cc1cc(F)c(C2(N3CCOC3=O)CCOCC2)cc1F [Example 102, 3-[4-[2,5-difluoro-4-[[(3S,6R)-3-methyl-1,1-dioxo-6-phenyl-thiazinan-2-yl]methyl]phenyl]tetrahydropyran-4-yl]oxazolidin-2-one]	55.3 nM
C[C@H]1CC[C@H](c2ccccc2)S(=O)(=O)N1Cc1cc(F)c(C2(NCc3ccon3)COC2)cc1F [Example 103, 3-[2,5-difluoro-4-[[(3S,6R)-3-methyl-1,1-dioxo-6-phenyl-thiazinan-2-yl]methyl]phenyl]-N-(isoxazol-3-ylmethyl)oxetan-3-amine]	1.5 nM
C[C@H]1CC[C@H](c2ccccc2)S(=O)(=O)N1Cc1cc(F)c(C2(NC(=O)Cc3ccon3)CCOCC2)cc1F [Example 104, N-[4-[2,5-difluoro-4-[[(3S,6R)-3-methyl-1,1-dioxo-6-phenyl-thiazinan-2-yl]methyl]phenyl]tetrahydropyran-4-yl]-2-isoxazol-3-yl-acetamide]	2.6 nM
C[C@H]1CC[C@H](c2ccccc2)S(=O)(=O)N1Cc1cc(F)c(C2(Nc3cnccn3)COC2)cc1F [Example 105, N-[3-[2,5-difluoro-4-[[(3S,6R)-3-methyl-1,1-dioxo-6-phenyl-thiazinan-2-yl]methyl]phenyl]oxetan-3-yl]pyrazin-2-amine]	2.2 nM
C[C@H]1CC[C@H](c2ccccc2)S(=O)(=O)N1Cc1cc(F)c(C2(NC(=O)c3cc(=O)[nH]o3)COC2)cc1F [Example 106, N-[3-[2,5-difluoro-4-[[(3S,6R)-3-methyl-1,1-dioxo-6-phenyl-thiazinan-2-yl]methyl]phenyl]oxetan-3-yl]-3-oxo-isoxazole-5-carboxamide]	5.1 nM

Second part, the molecule after the results:

IC50	SMILES
4.8 nM	C[C@H]1CC[C@H](c2ccccc2)S(=O)(=O)N1Cc1cc(F)c(C2(NC(=O)c3cocn3)CCOCC2)cc1F [Example 80, N-[4-[2,5-difluoro-4-[[(3S,6R)-3-methyl-1,1-dioxo-6-phenyl-thiazinan-2-yl]methyl]phenyl]tetrahydropyran-4-yl]oxazole-4-carboxamide]
4.1 nM	C[C@H]1CC[C@H](c2ccccc2)S(=O)(=O)N1Cc1cc(F)c(C2(NCc3cocn3)COC2)cc1F [Example 85, 3-[2,5-difluoro-4-[[(3S,6R)-3-methyl-1,1-dioxo-6-phenyl-thiazinan-2-yl]methyl]phenyl]-N-(oxazol-4-ylmethyl)oxetan-3-amine]
8 nM	C[C@H]1CC[C@H](c2ccccc2)S(=O)(=O)N1Cc1cc(F)c(C2(NCc3ncnn3C)COC2)cc1F [Example 87, 3-[2,5-difluoro-4-[[(3S,6R)-3-methyl-1,1-dioxo-6-phenyl-thiazinan-2-yl]methyl]phenyl]-N-[(2-methyl-1,2,4-triazol-3-yl)methyl]oxetan-3-amine]
13.7 nM	CNc1nnc(C2(c3cc(F)c(CN4[C@@H](C)CC[C@H](c5ccccc5)S4(=O)=O)cc3F)CCOCC2)o1 [Example 90, 5-[4-[2,5-difluoro-4-[[(3S,6R)-3-methyl-1,1-dioxo-6-phenyl-thiazinan-2-yl]methyl]phenyl]tetrahydropyran-4-yl]-N-methyl-1,3,4-oxadiazol-2-amine]
20.6 nM	Cc1cc(CNC2(c3cc(F)c(CN4[C@@H](C)CC[C@H](c5ccccc5)S4(=O)=O)cc3F)COC2)no1 [Example 95, 3-[2,5-difluoro-4-[[(3S,6R)-3-methyl-1,1-dioxo-6-phenyl-thiazinan-2-yl]methyl]phenyl]-N-[(5-methylisoxazol-3-yl)methyl]oxetan-3-amine]
35.6 nM	C[C@H]1CC[C@H](c2ccccc2)S(=O)(=O)N1Cc1cc(F)c(C2(NC(=O)c3cocn3)COC2)cc1F [Example 96, N-[3-[2,5-difluoro-4-[[(3S,6R)-3-methyl-1,1-dioxo-6-phenyl-thiazinan-2-yl]methyl]phenyl]oxetan-3-yl]oxazole-4-carboxamide]
67.6 nM	C[C@H]1CC[C@H](c2ccccc2)S(=O)(=O)N1Cc1cc(F)c(C2(N3C[C@H](CO)OC3=O)CCOCC2)cc1F [Example 98, (5R)-3-[4-[2,5-difluoro-4-[[(3S,6R)-3-methyl-1,1-dioxo-6-phenyl-thiazinan-2-yl]methyl]phenyl]tetrahydropyran-4-yl]-5-(hydroxymethyl)oxazolidin-2-one]
58.7 nM	C[C@H]1CC[C@H](c2ccccc2)S(=O)(=O)N1Cc1cc(F)c(C2(N3C[C@@H](CO)OC3=O)CCOCC2)cc1F [Example 99, (5S)-3-[4-[2,5-difluoro-4-[[(3S,6R)-3-methyl-1,1-dioxo-6-phenyl-thiazinan-2-yl]methyl]phenyl]tetrahydropyran-4-yl]-5-(hydroxymethyl)oxazolidin-2-one]
60.7 nM	C[C@H]1CC[C@H](c2ccccc2)S(=O)(=O)N1Cc1cc(F)c(C2(Nc3ncccn3)COC2)cc1F [Example 101, N-[3-[2,5-difluoro-4-[[(3S,6R)-3-methyl-1,1-dioxo-6-phenyl-thiazinan-2-yl]methyl]phenyl]oxetan-3-yl]pyrimidin-2-amine]
2.7 nM	C[C@H]1CC[C@H](c2ccccc2)S(=O)(=O)N1Cc1cc(F)c(C2(NC(=O)c3ccon3)CCOCC2)cc1F [Example 107, N-[4-[2,5-difluoro-4-[[(3S,6R)-3-methyl-1,1-dioxo-6-phenyl-thiazinan-2-yl]methyl]phenyl]tetrahydropyran-4-yl]isoxazole-3-carboxamide]
